Patent US8765735B2, “Isoxazolines as inhibitors of fatty acid amide hydrolase” (Infinity Pharmaceuticals, Inc., priority 2009, dated 2014)
pKi: −log10 of the molar value.

Molecular target: T1, human FAAH (Homo sapiens, UniProt O00519)
T1 construct: host or cells: COS-7 cells, transient transfection; 13,000 g membrane fraction solubilised in 1% Triton X-100
T1 sequence (O00519 1-579): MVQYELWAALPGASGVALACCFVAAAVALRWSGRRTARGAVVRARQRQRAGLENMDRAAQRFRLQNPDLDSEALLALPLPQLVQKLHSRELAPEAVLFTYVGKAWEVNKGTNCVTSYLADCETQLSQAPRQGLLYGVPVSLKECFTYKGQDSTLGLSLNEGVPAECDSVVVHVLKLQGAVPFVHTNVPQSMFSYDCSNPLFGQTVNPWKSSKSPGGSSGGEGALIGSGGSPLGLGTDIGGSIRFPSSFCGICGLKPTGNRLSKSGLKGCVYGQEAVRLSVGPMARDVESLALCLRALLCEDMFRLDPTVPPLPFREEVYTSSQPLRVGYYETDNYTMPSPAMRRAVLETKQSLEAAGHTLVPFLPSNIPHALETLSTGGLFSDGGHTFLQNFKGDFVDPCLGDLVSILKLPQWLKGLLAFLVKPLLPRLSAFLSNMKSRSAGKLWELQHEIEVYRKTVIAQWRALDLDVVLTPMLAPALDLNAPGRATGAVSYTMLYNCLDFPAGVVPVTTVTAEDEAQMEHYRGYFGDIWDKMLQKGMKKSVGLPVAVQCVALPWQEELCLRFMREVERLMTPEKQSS
Assay: Inhibition of human FAAH (fluorescence assay, AMC arachidonoyl amide substrate)
Type: biochemical
Conditions: solubilized human FAAH from transfected COS-7 cells; 30 min preincubation; 20 μM AMC-arachidonoyl amide; 4 h at room temperature
Experimental: Human FAAH Preparation: COS-7 cells were split the day before, 1:5 into 150 mm×25 mm cell culture dishes (Corning Inc., Cat. No. 430599). Transient transfection took place at 30-40% confluency according to FuGENE 6 Transfection Reagent (Roche, Cat. No. 11814 443 001).
Transfection Procedure: The FuGENE transfection 6 reagent (45 uL) was added to 1410 μL of media (DMEM, serum free without pen/strep) in a 15 mL conical tube and incubated at room temp for 5 minutes, followed by the addition of FAAH plasmid DNA (15 μg) (OriGene Cat. No. TC119221, Genbank Accession No. NM_001441.1, 0.67 ug/uL) and a further incubation of 15 minutes at room temperature. The resulting solution was added into one dish of 30-40% confluent COS-7 cells in a drop-wise manner. The COS-7 cell dish was subsequently incubated for 48 hours. The cells are then harvested.
Harvest procedure: Media was aspirated from the dishes and the cells rinsed with 10 mL PBS. The PBS was removed and 3 mL of PBS added to the dish. The dish was scraped to resuspend the cells, and the subsequent cell suspension collected into a 15 mL conical tube. The cells were pelleted by centrifugation at 1200 rpm for 5 minutes in a bench top centrifuge. PBS was removed and the cell pellet snap frozen in liquid nitrogen and stored at −80° C.
COS-7 cells—FAAH purification: • (1) Fractionation: Frozen cell pellets from transient transfections were thawed on ice and resuspended in 12.5 mM Hepes pH 8.0, 100 mM NaCl, 1 mM EDTA (10 mL/0.2 g cell pellet). The pellets were dounce homogenized and then sonicated to produce cell extract. The cell extract was subsequently centrifuged at 1000 g to remove cellular debris. The pellet was discarded and the supernatant centrifuged at 13,000 g for 20 minutes. The pellet contained membrane bound FAAH. The supernatant was discarded and the pellet resolubilized. • (2) Re-solubilization: The fraction of interest, (13,000 g, membrane fraction) was re-suspended in 2.3 mL re-suspension buffer (20 mM Hepes pH 7.8, 10% v/v Glycerol, 1 mM EDTA, 1% Triton X-100) and the sample incubated on ice for 1 hour and then centrifuged to remove any particulate matter. The supernatant containing solubilized human FAAH was aliquoted and snap frozen in liquid nitrogen and stored at 80° C. until use. • (3) Characterization: Protein Concentration determined by Bradford assay. • SDS gel and Western blot to confirm presence of FAAH • FAAH activity assay • Km determination—96-well assay • Linear dependence—96-well assay • Standard compound Ki determination—384-well assay
Human FAAH assay; Experimental Protocol: A 0.1 mg/mL Human FAAH solution was made up in FAAH reaction buffer, and 24 ul pipeted into a 384 well plate. To this was added 1 μL of a 3 fold serially diluted inhibitor from a DMSO stock solution. The FAAH solution and inhibitor were incubated for 30 minutes at room temperature. The FAAH reaction was initiated by the addition of 25 μL of 40 μM AMC Arachidonoyl Amide in FAAH reaction buffer, yielding a final reaction human FAAH preparation concentration of 0.05 mg/ml and AMC-Arachidonoyl substrate concentration of 20 μM, reaction volume 50 μL. The reaction was allowed to proceed for 4 hours at room temperature. The reaction was stopped by the addition of 25 μL 12 μM a-ketoheterocycle (Cayman Chemicals, catalogue #10435). The microtiter plate was read in the envision plate reader.
The raw fluorescence was plotted on the y axis and the inhibitor concentration on the x axis to give a dose response inhibition curve. The data was fitted to a single site competitive inhibition equation, fixing the Km for the human enzyme to 12 μM and 9 μM respectively.

pKi	SMILES
≥ 7.00	Cn1cc(-c2ccc(OC3=NO[C@]4(CCc5cc(OC(F)(F)F)ccc54)C3)cn2)cn1 [III-70a]
≥ 7.00	Cn1nccc1-c1ccc(OC2=NO[C@]3(CCc4cc(OC(F)(F)F)ccc43)C2)cn1 [III-71a]
≥ 7.00	Cn1nccc1-c1ccc(OC2=NO[C@@]3(CCc4cc(OC(F)(F)F)ccc43)C2)cn1 [III-71b]
≥ 7.00	FC(F)(F)Oc1ccc2c(c1)CC[C@@]21CC(Oc2cncc(-c3nnco3)c2)=NO1 [III-73a]
≥ 7.00	FC(F)(F)Oc1ccc2c(c1)CC[C@]21CC(Oc2cncc(-c3nnco3)c2)=NO1 [III-73b]
≥ 7.00	O=C(O)c1ccc(OC2=NO[C@@]3(CCc4cc(OC(F)(F)F)ccc43)C2)cn1 [III-74b]
